# Experimental data reported in patent publication US20190008837A1, “OPHTHALMIC COMPOSITIONS AND ASSOCIATED METHODS” (University of Utah Research Foundation, priority 2016, published 2019).
# System: cornea neuron fibers of scratched corneas
# Test: Cornea scratch model, cornea neuron regeneration on flatmounts (Example 1)
# Type: in vivo, mice
# Conditions: eye drops 3 times per day for 5 days, corneas harvested on the 7th day, beta III tubulin staining
# Procedure: Nine mice were divided into three treatment groups having three mice each. The corneas of each of the mice in each of the groups were scratched. The control group was administered a standard blank (e.g. pacebo) composition. The first treatment group received pergolide. The second treatment group received cabergoline. Each of the eye drops was applied 3 times per day for 5 days. The corneas were harvested on the 7th day. The corneas were then fixed in acetone for 1 hour at room temperature and then blocked in 3% BSA for 1 hour. The cornea flatmounts were stained with primary antibody, anti-beta III tubulin antibody (rabbit polyclonal, ab18207) at 1:200 in 3% BSA blocking buffer overnight at 4° C. After washing 3 times for 10 minutes, each of the cornea flatmounts were incubated with secondary antibody (goat anti rabbit, Invitrogen Alexa Fluor 555) at 1:200 in 3% BSA for 1 hour at room temperature. The flatmounts were again washed 3 times for 10 minutes each. Images of the cornea neuron fibers were taken and analyzed under EVOS microscopy.
structure (smiles),measurement,value
C=CCN1C[C@H](C(=O)N(CCCN(C)C)C(=O)NCC)C[C@@H]2c3cccc4[nH]cc(c34)C[C@H]21 [cabergoline],cornea neuron regeneration compared to the blank control group,no neuron regeneration
